IC50 data for 14 molecules are collected here from patent US20250163104A1, “MACROCYCLIC IMMUNOMODULATORS” (priority 2021, published 2025).

Each structure is given as a SMILES string. Where a SMILES comes first, the peptide text is derived from it. Bridges are numbered along the chain shown (N, C = ends). [ ]: non-standard residue; d: D form. The star is where a group is joined. ξ: configuration not given here. Phe(4-COOH) = N[C@@H](Cc1ccc(C(=O)O)cc1)C(=O)O; Bip = N[C@@H](Cc1ccc(-c2ccccc2)cc1)C(=O)O; Phe(3-Me) = Cc1cccc(C[C@H](N)C(=O)O)c1; NMehPhe = CN[C@@H](CCc1ccccc1)C(=O)O; Val(3-OH) = CC(C)(O)[C@H](N)C(=O)O; aIle = CC[C@@H](C)[C@H](N)C(=O)O; 4Pal = N[C@@H](Cc1ccncc1)C(=O)O; Cha = N[C@@H](CC1CCCCC1)C(=O)O; Cit = NC(=O)NCCC[C@H](N)C(=O)O; dCha = N[C@H](CC1CCCCC1)C(=O)O; ξIle = CC[C@H](C)C(N)C(=O)O; Carboxymethyl = O=C(O)C*; Nle = CCCC[C@H](N)C(=O)O; Orn = NCCC[C@H](N)C(=O)O; Dab = NCC[C@H](N)C(=O)O; Dap = NC[C@H](N)C(=O)O; NHCH2CH2OMe = COCCN*; Propargyl = C#CC*

This experiment deals with T1, human PD-1 / PD-L1-Ig binding on Jurkat cell line over-expressing human PD-1 (Jurkat-PD-1) (Homo sapiens, UniProt Q15116).
T1 construct: expressed in transfected cells; host or cells: Jurkat
T1 sequence (Q15116 25-288): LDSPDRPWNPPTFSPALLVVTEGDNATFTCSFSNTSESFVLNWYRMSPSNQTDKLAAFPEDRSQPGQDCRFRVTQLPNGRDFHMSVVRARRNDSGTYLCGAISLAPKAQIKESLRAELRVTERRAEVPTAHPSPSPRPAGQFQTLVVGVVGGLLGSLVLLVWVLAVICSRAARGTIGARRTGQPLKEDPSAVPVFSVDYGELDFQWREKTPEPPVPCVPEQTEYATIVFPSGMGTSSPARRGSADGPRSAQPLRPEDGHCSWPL
The experiment in a line: Jurkat-PD-1 Cell Binding High-Content Screening Assay (CBA). To be noted: Jurkat-PD-1 cells, PE-labeled PD-L1-Ig 20 nM final; read-out: Jurkat HPD1_PDL1 IC50. It counts as cell-based. The procedure: Example 3. Jurkat-PD-1 Cell Binding High-Content Screening Assay (CBA)
Jurkat-PD-1 Cell Binding High-Content Screening Assay (CBA). Phycoerythrin (PE) was covalently linked to the Ig epitope tag of human PD-L1-Ig and fluorescently-labeled PD-L1-Ig was used for binding studies with a Jurkat cell line over-expressing human PD-1 (Jurkat-PD-1). Briefly, 8×10^3 Jurkat-hPD-1 cells were seeded into 384 well plates in 20 μl of DMEM supplemented with 10% fetal calf serum. 100 nL of compound was added to cells followed by incubation at 37° C. for 2 h. Then, 5 μl of PE-labeled PD-L1-Ig (20 nM final), diluted in DMEM supplemented with 10% fetal calf serum. After 1 hour incubation, cells were fixed with 4% paraformaldehyde in dPBS containing 10 μg/ml Hoechst 33342 and then washed 3x in 100 μl dPBS. Data was collected and processed using a Cell Insight NXT High Content Imager and associated software.

What is called IC50 is the concentration needed to halve the response being measured. Take `C#CCOc1ccc(C[C@@H]2NC(=O)[C@H](Cc3ccc(-c4ccccc4)cc3)NC(=O)[C@H](C(C)C)NC(=O)[C@H](Cc3cccc(C)c3)NC(=O)[C@H](CC(=O)O)NC(=O)[C@H](Cc3ccc(C(=O)O)cc3)NC(=O)[C@H](CN)NC(=O)CSC[C@@H](C(=O)N[C@@H](CCN)C(N)=O)NC(=O)[C@H]([C@@H](C)O)NC(=O)[C@H](C(C)C)NC(=O)[C@H](CC3CCCCC3)NC(=O)[C@H](CCN)NC(=O)[C@@H](CC(C)C)NC(=O)[C@H](CCCN)NC2=O)cc1` [Compound 2024] ({CH2CO}-[Dap][Phe(4-COOH)]D[Phe(3-Me)]V[Bip]Y(Propargyl)[Orn][dL][Dab][Cha]VTC[Dab]-NH2; thioether N-14): the 50% inhibitory concentration (IC50) turned out to be 13.6 nM.
`CC[C@H](C)[C@@H]1NC(=O)[C@H](Cc2ccc(-c3ccccc3)cc2)NC(=O)[C@H](C(C)C)NC(=O)[C@H](Cc2cccc(C)c2)NC(=O)[C@H](CC(=O)O)NC(=O)[C@H](Cc2ccc(C(=O)O)cc2)NC(=O)[C@H](Cc2ccc(OCC(=O)O)cc2)NC(=O)CSC[C@@H](C(N)=O)NC(=O)[C@H]([C@@H](C)O)NC(=O)[C@H](C(C)C)NC(=O)[C@H](CC(C)C)NC(=O)[C@H](CCN)NC(=O)[C@@H](CC(C)C)NC(=O)[C@H](CCCN)NC1=O` [Compound 1555] ({CH2CO}-Y(Carboxymethyl)[Phe(4-COOH)]D[Phe(3-Me)]V[Bip]I[Orn][dL][Dab]LVTC-NH2; thioether N-14): the IC50 stood at 43.3 nM.
Then `CC[C@@H](C)[C@@H]1NC(=O)[C@H](Cc2ccc(-c3ccccc3)cc2)NC(=O)[C@H](C(C)C)NC(=O)[C@H](Cc2c[nH]c3ccccc23)NC(=O)[C@H](CC(=O)O)NC(=O)[C@H](Cc2ccncc2)NC(=O)[C@H](Cc2ccc(OCC(=O)O)cc2)NC(=O)CSC[C@@H](C(=O)N[C@@H](C)C(N)=O)NC(=O)[C@H]([C@@H](C)O)NC(=O)[C@H](C(C)C)NC(=O)[C@H](CC2CCCCC2)NC(=O)[C@H](CCN)NC(=O)[C@@H](CC2CCCCC2)NC(=O)[C@H](CCCN)NC1=O` [Compound 1629] ({CH2CO}-Y(Carboxymethyl)[4Pal]DWV[Bip][aIle][Orn][dCha][Dab][Cha]VTCA-NH2; thioether N-14), with 19.9 nM; and `CC(C)C[C@@H]1NC(=O)[C@H](Cc2c[nH]c3ccccc23)NC(=O)[C@H](CC(=O)O)NC(=O)[C@H](Cc2ccc(O)cc2)NC(=O)[C@H](Cc2ccccc2)NC(=O)CSC[C@@H](C(=O)N[C@@H](C)C(N)=O)NC(=O)[C@H](CO)NC(=O)[C@H](C(C)C)NC(=O)[C@H](CC(C)C)NC(=O)[C@H](CC(N)=O)NC(=O)[C@@H](CC(C)C)NC(=O)[C@H](CN)NC(=O)[C@H](CCC(=O)O)NC(=O)[C@H](Cc2ccc(-c3ccccc3)cc2)NC1=O` [Compound 1226] ({CH2CO}-FYDWL[Bip]E[Dap][dL]NLVSCA-NH2; thioether N-14), with 32.2 nM.
As to `CC(C)C[C@@H]1NC(=O)[C@H](CCN)NC(=O)[C@@H](CC(C)C)NC(=O)[C@H](CC(N)=O)NC(=O)[C@H](C(C)C)NC(=O)[C@H](Cc2ccc(-c3ccccc3)cc2)NC(=O)[C@H](C(C)C)NC(=O)[C@H](Cc2c[nH]c3ccccc23)NC(=O)[C@H](CC(=O)O)NC(=O)[C@H](Cc2ccc(O)cc2)NC(=O)[C@H](CC(N)=O)NC(=O)CSC[C@@H](C(=O)N[C@@H](C)C(N)=O)NC(=O)[C@H]([C@@H](C)O)NC(=O)[C@H](C(C)C)NC1=O` [Compound 1036] ({CH2CO}-NYDWV[Bip]VN[dL][Dab]LVTCA-NH2; thioether N-14), the IC50 came to 26.4 nM.
Then `Cc1cccc(C[C@@H]2NC(=O)[C@H](CC(=O)O)NC(=O)[C@H](Cc3ccc(OCC(=O)O)cc3)NC(=O)[C@H](Cc3ccncc3)NC(=O)CSC[C@@H](C(=O)N[C@@H](CCN)C(N)=O)NC(=O)[C@H](CCC(N)=O)NC(=O)[C@H](C(C)(C)O)NC(=O)[C@H](CC3CCCCC3)NC(=O)[C@H](CCN)NC(=O)[C@@H](CC(C)C)NC(=O)[C@H](CCCN)NC(=O)[C@H](Cc3ccc(OCC(=O)O)cc3)NC(=O)[C@H](Cc3ccc(-c4ccccc4)cc3)NC(=O)[C@H](Cc3ccc(OCC(=O)O)cc3)NC2=O)c1` [Compound 2068] ({CH2CO}-[4Pal]Y(Carboxymethyl)D[Phe(3-Me)]Y(Carboxymethyl)[Bip]Y(Carboxymethyl)[Orn][dL][Dab][Cha][Val(3-OH)]QC[Dab]-NH2; thioether N-14), with 8.2 nM.
With `CC[C@H](C)C1NC(=O)[C@H](Cc2ccc(-c3ccccc3)cc2)NC(=O)[C@H](C(C)C)NC(=O)[C@H](Cc2c[nH]c3ccccc23)NC(=O)[C@H](CC(N)=O)NC(=O)[C@H](Cc2ccc(O)cc2)NC(=O)[C@H](CN)NC(=O)CSC[C@@H](C(=O)N[C@@H](C)C(N)=O)NC(=O)[C@H]([C@@H](C)O)NC(=O)[C@H](C(C)C)NC(=O)[C@H](CC(C)C)NC(=O)[C@H](CCN)NC(=O)[C@@H](CC(C)C)NC(=O)[C@H](CN)NC1=O` (stereo partly drawn) [Compound 1089] ({CH2CO}-[Dap]YNWV[Bip][ξIle][Dap][dL][Dab]LVTCA-NH2; thioether N-14), the IC50 turned out to be 26.7 nM.
Consider `CC(C)C[C@@H]1NC(=O)[C@H](Cc2c[nH]c3ccccc23)NC(=O)[C@H](CC(=O)O)NC(=O)[C@H](Cc2ccc(O)cc2)NC(=O)[C@H](Cc2ccccc2)NC(=O)CSC[C@@H](C(=O)N[C@@H](C)C(N)=O)NC(=O)[C@H](CO)NC(=O)[C@H](C(C)C)NC(=O)[C@H](CC(C)C)NC(=O)[C@H](CC(N)=O)NC(=O)[C@@H](CC(C)C)NC(=O)[C@H](CCCN)NC(=O)[C@H](C(C)C)NC(=O)[C@H](Cc2ccc(-c3ccccc3)cc2)NC1=O` [Compound 1065] ({CH2CO}-FYDWL[Bip]V[Orn][dL]NLVSCA-NH2; thioether N-14), for which the 50% inhibitory concentration (IC50) came out at 12.8 nM.
The figure for `CC(C)C[C@H]1NC(=O)[C@H](CCCN)NC(=O)[C@H](C(C)C)NC(=O)[C@H](Cc2ccc(-c3ccccc3)cc2)NC(=O)[C@H](C(C)C)NC(=O)[C@H](Cc2c[nH]c3ccccc23)NC(=O)[C@H](CC(=O)O)NC(=O)[C@H](Cc2ccc(OCC(=O)O)cc2)NC(=O)[C@H](CCc2ccccc2)N(C)C(=O)CSC[C@@H](C(=O)N[C@@H](C)C(N)=O)NC(=O)[C@H](CO)NC(=O)[C@H](C(C)C)NC(=O)[C@H](CC2CCCCC2)NC(=O)[C@H](CCN)NC1=O` [Compound 2516] ({CH2CO}-[NMehPhe]Y(Carboxymethyl)DWV[Bip]V[Orn][dL][Dab][Cha]VSCA-NH2; thioether N-14) is 10 nM.
Turning to `CC(C)C[C@H]1NC(=O)[C@H](CCCN)NC(=O)[C@H](CCC(=O)O)NC(=O)[C@H](Cc2ccc(-c3ccccc3)cc2)NC(=O)[C@H](C(C)C)NC(=O)[C@H](CCc2ccccc2)NC(=O)[C@H](CC(=O)O)NC(=O)[C@H](Cc2ccc(OCC(=O)O)cc2)NC(=O)[C@H](CN)NC(=O)CSC[C@@H](C(=O)N[C@@H](C)C(N)=O)NC(=O)[C@H]([C@@H](C)O)NC(=O)[C@H](C(C)C)NC(=O)[C@H](CC2CCCCC2)NC(=O)[C@H](CCN)NC1=O` [Compound 2155], the IC50 was determined as 49.3 nM.
In the case of `COCCNC(=O)[C@H](CCN)NC(=O)[C@@H]1CSCC(=O)N[C@@H]([C@@H](C)O)C(=O)N[C@@H](Cc2ccc(C(=O)O)cc2)C(=O)N[C@@H](CC(=O)O)C(=O)N[C@@H](Cc2cccc(C)c2)C(=O)N[C@@H](Cc2ccc(OCC(=O)O)cc2)C(=O)N[C@@H](Cc2ccc(-c3ccccc3)cc2)C(=O)N[C@@H](Cc2ccc(OCC(=O)O)cc2)C(=O)N[C@@H](CCCN)C(=O)N[C@H](CC(C)C)C(=O)N[C@@H](CCN)C(=O)N[C@@H](CC2CCCCC2)C(=O)N[C@@H](C(C)(C)O)C(=O)N[C@@H](CO)C(=O)N1` [Compound 2077] ({CH2CO}-T[Phe(4-COOH)]D[Phe(3-Me)]Y(Carboxymethyl)[Bip]Y(Carboxymethyl)[Orn][dL][Dab][Cha][Val(3-OH)]SC[Dab]-NHCH2CH2OMe; thioether N-14), the IC50 worked out at 7.3 nM.
The figure for `CCCC[C@@H]1NC(=O)[C@H](CCN)NC(=O)[C@@H](CC(C)C)NC(=O)[C@H](CCCN)NC(=O)[C@H](CCCNC(N)=O)NC(=O)[C@H](Cc2ccc(-c3ccccc3)cc2)NC(=O)[C@H](C(C)C)NC(=O)[C@H](Cc2c[nH]c3ccccc23)NC(=O)[C@H](CC(=O)O)NC(=O)[C@H](Cc2ccc(O)cc2)NC(=O)[C@H](CC(N)=O)NC(=O)CSC[C@@H](C(=O)N[C@@H](C)C(N)=O)NC(=O)[C@H]([C@@H](C)O)NC(=O)[C@H](C(C)C)NC1=O` [Compound 1162] ({CH2CO}-NYDWV[Bip][Cit][Orn][dL][Dab][Nle]VTCA-NH2; thioether N-14) is 327 nM; for `CC(C)C[C@H]1NC(=O)[C@H](CCCN)NC(=O)[C@H](CCC(=O)O)NC(=O)[C@H](Cc2ccc(-c3ccccc3)cc2)NC(=O)[C@H](C(C)C)NC(=O)[C@H](Cc2ccccc2F)NC(=O)[C@H](CC(=O)O)NC(=O)[C@H](Cc2ccc(OCC(=O)O)cc2)NC(=O)[C@H](CN)NC(=O)CSC[C@@H](C(=O)N[C@@H](C)C(N)=O)NC(=O)[C@H]([C@@H](C)O)NC(=O)[C@H](C(C)C)NC(=O)[C@H](CC2CCCCC2)NC(=O)[C@H](CCN)NC1=O` [Compound 2150] it is 7.5 nM; for `C#CCOc1ccc(C[C@@H]2NC(=O)[C@H](Cc3cccc(C)c3)NC(=O)[C@H](CC(=O)O)NC(=O)[C@H](Cc3ccc(C(=O)O)cc3)NC(=O)[C@H](CN)NC(=O)CSC[C@@H](C(=O)N[C@@H](CCN)C(N)=O)NC(=O)[C@H]([C@@H](C)O)NC(=O)[C@H](C(C)C)NC(=O)[C@H](CC3CCCCC3)NC(=O)[C@H](CCN)NC(=O)[C@@H](CC(C)C)NC(=O)[C@H](CCCN)NC(=O)[C@H](C(C)C)NC(=O)[C@H](Cc3ccc(-c4ccccc4)cc3)NC2=O)cc1` [Compound 2022] ({CH2CO}-[Dap][Phe(4-COOH)]D[Phe(3-Me)]Y(Propargyl)[Bip]V[Orn][dL][Dab][Cha]VTC[Dab]-NH2; thioether N-14) it is 6.9 nM.
